In US20140107109A1, “AMINO-DIHYDROTHIAZINE AND AMINO-DIOXIDO DIHYDROTHIAZINE COMPOUNDS AS BETA-SECRETASE ANTAGONISTS AND METHODS OF USE” (Amgen Inc., priority 2012, published 2014):
pIC50: −log10 of the molar value. Like-named read-outs stand apart in the source and are kept apart here.

How the values were obtained:
[1] = test system: Aβ40 in conditioned medium of cells stably expressing Amyloid Precursor Protein (APP); assay: In vitro BACE cell-based assay (HEK cell assay), Aβ40 sandwich ELISA
Outline: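 APP-stably expressing cells (40K/well, grown 24 h in DMEM/10% FBS) were treated 24 h with compounds in 10-point dose response starting at 100 μM or 10 μM, 0.1% DMSO final. Secreted Aβ40 was measured by sandwich ELISA (pAb40 capture, biotinylated 6E10 detection, europium time-resolved fluorescence); IC50 from percent inhibition.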

Cathepsin D (Cat D) = target: T1, Cathepsin D (Cat D) (Homo sapiens, UniProt P07339); assay: In vitro enzymatic Cathepsin D (Cat D) FRET assay; assay type: biochemical; conditions: read-out: CatD IC50
T1 construct: Recombinant Cat D was expressed in CHO cells; made in house; host or cells: CHO cells
T1 sequence (P07339 65-412, species assumed): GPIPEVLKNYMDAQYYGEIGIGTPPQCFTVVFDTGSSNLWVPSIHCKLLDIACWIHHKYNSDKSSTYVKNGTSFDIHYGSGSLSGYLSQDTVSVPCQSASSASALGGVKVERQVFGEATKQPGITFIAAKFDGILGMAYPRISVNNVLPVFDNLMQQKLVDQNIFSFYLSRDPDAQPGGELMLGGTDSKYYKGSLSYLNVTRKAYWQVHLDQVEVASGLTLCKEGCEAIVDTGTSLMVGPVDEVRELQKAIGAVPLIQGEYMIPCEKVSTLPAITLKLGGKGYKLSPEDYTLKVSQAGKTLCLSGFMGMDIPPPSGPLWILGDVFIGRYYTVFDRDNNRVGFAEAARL
Outline: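 Recombinant Cat D expressed in CHO cells, used at 9 nM and pre-incubated one hour with serially diluted inhibitor in DMSO. Peptide substrate carries a fluorophore and quencher flanking the cleavage site; reaction stopped with Tris buffer raising pH to neutrality, then fluorescence read.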

[2] = test system: Abeta 40 in cerebrospinal fluid (CSF) and brain; assay: In vivo inhibition of beta-secretase: Abeta 40 reduction in CSF and brain of the rat; conditions: 10 mpk (unless otherwise noted), after 4 hrs
Source text: In Vivo Inhibition of Beta-Secretase
Several animal models, including mouse, rat, dog, and monkey, may be used to screen for inhibition of beta-secretase activity in vivo following administration of a test compound sample. Animals used in this invention can be wild type, transgenic, or gene knockout animals. […] One to twenty-four hours following the administration of compound, animals are sacrificed, and brains as well as cerebrospinal fluid (CSF) and plasma are removed for analysis of A-beta levels and drug or test compound concentrations (Dovey et al., 2001, Journal of Neurochemistry, 76, 173-181) Beginning at time 0, animals are administered by oral gavage, or other means of delivery such as intravenous injection, an inhibitory test compound of up to 100 mg/kg in a standard, conventional formulation, such as 2% hydroxypropyl methylcellulose, 1% Tween80. A separate group of animals receive 2% hydroxypropyl methylcellulose, 1% Tween80 alone, containing no test compound, and serve as a vehicle-control group. […] CSF or brain supernatants are then analyzed for the presence of A-beta peptide by specific sandwich ELISA assays based on ECL (Electrochemiluminescence) technology. For example, rat Abeta40 is measured using biotinylated-4G8 (Signet) as a capture antibody and Fab40 (an in-house antibody specific to the C-terminal of Abeta40) as a detection antibody.

Aβ in lumbar CSF = conditions: Ph I clinical trial; cited from earlier work
[3] = test system: pigment epithelium of the rat's eye; conditions: higher compound dose given for three months; cited from earlier work
[4] = people brought in after termination of the Ph I dosing trial; cited from earlier work
[5] = target: Beta Secretase enzyme (BACE1) (Homo sapiens, UniProt P56817); assay: In vitro enzymatic BACE FRET assay; assay type: biochemical; conditions: read-out: BACE1 FRET assay IC50
Beta Secretase enzyme (BACE1), sequence (P56817 46-501): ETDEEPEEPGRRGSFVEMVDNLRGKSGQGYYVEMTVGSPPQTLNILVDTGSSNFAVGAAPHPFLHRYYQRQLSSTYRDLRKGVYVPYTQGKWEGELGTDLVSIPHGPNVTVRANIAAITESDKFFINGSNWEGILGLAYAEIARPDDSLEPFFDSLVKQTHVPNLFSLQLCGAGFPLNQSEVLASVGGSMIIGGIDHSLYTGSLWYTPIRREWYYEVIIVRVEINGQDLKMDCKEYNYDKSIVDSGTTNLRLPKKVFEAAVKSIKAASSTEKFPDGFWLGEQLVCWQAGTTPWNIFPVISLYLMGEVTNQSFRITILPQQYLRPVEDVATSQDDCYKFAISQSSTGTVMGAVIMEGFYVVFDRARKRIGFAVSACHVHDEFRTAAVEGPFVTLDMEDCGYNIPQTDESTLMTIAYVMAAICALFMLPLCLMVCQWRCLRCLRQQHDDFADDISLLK
Outline: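 BACE1 cleavage of a 50 nM fluorophore/quencher peptide FRET substrate ran for one hour in 0.05 M acetate pH 4.2, 10% DMSO, 100 uM genapol. Tris buffer raised pH to neutrality to stop the reaction before fluorescence was read (excitation 488 nm, […]).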

[6] = Homo sapiens, HEK293, average IC50, cell assay
[7] = Homo sapiens, HEK293, average IC50, HEK cell assay

| pIC50 (Cathepsin D (Cat D)) | pIC50 [5] | pIC50 ([5]; average IC50, enzyme assay) | Compound | also measured |
| --- | --- | --- | --- | --- |
| 3.84 | – | – | COc1cnc(C(=O)Nc2ccc(F)c([C@]34COC[C@H]3S(=O)(=O)C(C)(C)C(N)=N4)c2)c(C)c1 [Example 430, N-(3-((4aS,7aS)-3-amino-2,2-dimethyl-1,1-dioxido-7,7a-dihydro-2H-furo[3,4-b][1,4]thiazin-4a(5H)-yl)-4-fluorophenyl)-5-methoxy-3-methyl-2-pyridinecarboxamide] | pIC50 [1, 6]: 7.93; % reduction of rat CSF levels at 10pmk ([2]; rat CSF): 31%; % reduction of rat brain levels at 10mpk ([2]; rat brain): 1% |
| – | – | – | C[C@@]1(c2cc(-c3cncnc3)c(F)cc2F)CCSC(N)=N1 [LY2811376, (S)-4-(2,4-difluoro-5-pyrimidin-5-yl-phenyl)-4-methyl-5,6-dihydro-4H-[1,3]thiazin-2-ylamine] | safety and tolerability in healthy volunteers (Aβ in lumbar CSF): safe and well tolerated |
| – | – | – | C[C@@]1(c2cc(-c3cncnc3)c(F)cc2F)CCSC(N)=N1 [LY 2811376] | rat toxicology finding [3]: damaged the pigment epithelium of the rat's eye; eye assessments of Ph I subjects [4]: did not show any abnormalities |
| 3.15 | – | 8.19 | Cc1cc(Cl)ccc1C(=O)Nc1ccc(F)c([C@]2(C)CS(=O)(=O)C(C)(C)C(N)=N2)c1 [Example 353, N-(3-((3R)-5-amino-3,6,6-trimethyl-1,1-dioxido-3,6-dihydro-2H-1,4-thiazin-3-yl)-4-fluorophenyl)-4-chloro-2-methylbenzamide] | pIC50 [1, 7]: 7.78 |
| 4.30 | – | 7.34 | CC1(C)C(N)=N[C@](C)(c2cc(NCc3nn(CC(F)(F)F)cc3Cl)ccc2F)CS1(=O)=O [Example 108, (R)-5-amino-3-(5-(((4-chloro-1-(2,2,2-trifluoroethyl)-1H-pyrazol-3-yl)methyl)amino)-2-fluorophenyl)-3,6,6-trimethyl-3,6-dihydro-2H-1,4-thiazine 1,1-dioxide] | pIC50 [1, 6]: 6.79 |
| 3.83 | 8.89 | – | C[C@@]1(c2cc(NC(=O)c3ccc(Cl)cn3)ccc2F)CS(=O)(=O)C2(CC(F)(F)C2)C(N)=N1 [Example 120, (R)—N-(3-(9-amino-2,2-difluoro-7-methyl-5,5-dioxido-5-thia-8-azaspiro[3.5]non-8-en-7-yl)-4-fluorophenyl)-5-chloropicolinamide] | pIC50 ([1]; Homo sapiens, HEK293): 7.57 |
| 4.30 | – | 6.18 | CC1(C)C(N)=N[C@](C)(c2cc(Oc3cc(-c4ccc(C(F)(F)F)cc4)ccn3)ccc2F)CS1(=O)=O [Example 255, (5R)-5-(2-fluoro-5-((4-(4-(trifluoromethyl)phenyl)-2-pyridinyl)oxy)phenyl)-2,2,5-trimethyl-5,6-dihydro-2H-1,4-thiazin-3-amine 1,1-dioxide] | pIC50 [1, 6]: 5.40 |
| 3.60 | – | 7.42 | CC1(C)C(N)=N[C@](C)(c2cc(NC(=O)c3ccc4ccccc4n3)ccc2F)CS1(=O)=O [Example 315, N-(3-((3R)-5-amino-3,6,6-trimethyl-1,1-dioxido-3,6-dihydro-2H-1,4-thiazin-3-yl)-4-fluorophenyl)-2-quinolinecarboxamide] | pIC50 [1, 7]: 7.60 |
| 3.77 | – | 8.82 | N-(3-((4aR,7aS)-3-amino-2,2-dimethyl-1,1-dioxido-7,7a-dihydro-2H-furo[3,4-b][1,4]thiazin-4a(5H)-yl)-4-fluorophenyl)-5-chloro-2-pyridinecarboxamide, N-(3-((4aS,7aR)-3-amino-2,2-dimethyl-1,1-dioxido-7,7a-dihydro-2H-furo[3,4-b][1,4]thiazin-4a(5H)-yl)-4-fluorophenyl)-5-chloro-2-pyridinecarboxamide [Example 426] | pIC50 ([1]; average IC50, cell assay): 7.87 |
| 5.07 | 9.40 | – | CC1(C)C(N)=N[C@](C)(c2cc(Nc3nccc4cc(Cl)cnc34)cc(F)c2F)CS1(=O)=O [Example 69, (R)-5-Amino-3-(5-((3-chloro-1,7-naphthyridin-8-yl)amino)-2,3-difluorophenyl)-3,6,6-trimethyl-3,6-dihydro-2H-1,4-thiazine 1,1-dioxide] | pIC50 ([1]; Homo sapiens, HEK293, Aβ40, 24 h incubation): 7.64 |
| 4.93 | 7.86 | – | CC1(C)C(N)=N[C@](C)(c2cc(Nc3c(Cl)sc4cc(C#N)cnc34)ccc2F)CS1(=O)=O [Example 167, (R)-3-((3-(5-amino-3,6,6-trimethyl-1,1-dioxido-3,6-dihydro-2H-1,4-thiazin-3-yl)-4-fluorophenyl)-amino)-2-chlorothieno[3,2-b]pyridine-6-carbonitrile] | pIC50 ([1]; Homo sapiens, HEK293): 5.84 |
| 3.03 | – | 8.41 | C[C@]1(F)C(N)=N[C@](C)(c2cc(NC(=O)c3cnc(C(F)(F)F)cn3)ccc2F)CS1(=O)=O [Example 323, N-(3-((3R,6R)-5-amino-6-fluoro-3,6-dimethyl-1,1-dioxido-3,6-dihydro-2H-1,4-thiazin-3-yl)-4-fluorophenyl)-5-(trifluoromethyl)-2-pyrazinecarboxamide] | pIC50 [1, 7]: 6.54 |

| Compound | pIC50 (Cathepsin D (Cat D)) | pIC50 [5] | pIC50 ([5]; average IC50, enzyme assay) | also measured |
| --- | --- | --- | --- | --- |
| C[C@@]1(c2cc(NC(=O)c3ccc(Cl)cn3)ccc2F)CS(=O)(=O)C2(CCC2)C(N)=N1 [Example 416, N-(3-((7R)-9-amino-7-methyl-5,5-dioxido-5-thia-8-azaspiro[3.5]non-8-en-7-yl)-4-fluorophenyl)-5-chloro-2-pyridinecarboxamide] | 4.23 | 8.63 | – | pIC50 ([1]; Homo sapiens, HEK293): 8.23 |
